Test results reported in patent publication US20220389061A1, “IMMUNOMODULATORS” (priority 2019, published 2022).
One block for each compound: values may come before it. Starred links: 1 amine or outer side, 2 acyl side, 3 side chain; linkers in the order of their positions; H or OH if unused. Positions of bridges follow the written chain, without caps; N, C: chain ends. Non-standard residues stand in square brackets, D forms with d. Residues, ends and D or L forms follow the SMILES beside them. Groups on a side chain read outwards from the residue. *: point of attachment. Trp(1-CH2CO2Me) = COC(=O)Cn1cc(C[C@H](N)C(=O)O)c2ccccc21; Trp(1-CH2COOH) = N[C@@H](Cc1cn(CC(=O)O)c2ccccc12)C(=O)O; Benzoyl(4-F,3-CF3) = O=C(c1ccc(F)c(C(F)(F)F)c1)*; Benzofuran(2-CO) = O=C(c1cc2ccccc2o1)*; X8 = NC(=O)c1c[nH]c2c(NC(=S)*)cccc12; Hyp = O=C(O)[C@@H]1C[C@@H](O)CN1; X44 = FC(F)(F)c1ccc(NC(=S)*)cc1; X94 = S=C(Nc1ccc(N2CCOCC2)nc1)*; X43 = S=C(Nc1ccccc1Oc1ccccc1)*; NMeNle = CCCC[C@H](NC)C(=O)O; X5 = S=C(Nc1cccc2ccccc12)*; X82 = S=C(Nc1cccc2nsnc12)*; X86 = CCOc1ccc(NC(=S)*)cc1; X6 = CCCCCCCOc1ccc(N*)cc1; X90 = Fc1cc(F)c(N*)c(F)c1; NMeA = CN[C@@H](C)C(=O)O; Dab = NCC[C@H](N)C(=O)O; Dap = NC[C@H](N)C(=O)O; X26 = S=C(Nc1ccccc1)*; X51 = Cc1cccc(Cl)c1N*; CO = O=C([*:1])[*:2]

Target: T1, PD-1/PD-L1 (Homo sapiens, UniProt Q9NZQ7)
T1 construct: TVMV protease site linker (C); made in house; host or cells: HEK293T cells
T1 sequence (Q9NZQ7 18-239): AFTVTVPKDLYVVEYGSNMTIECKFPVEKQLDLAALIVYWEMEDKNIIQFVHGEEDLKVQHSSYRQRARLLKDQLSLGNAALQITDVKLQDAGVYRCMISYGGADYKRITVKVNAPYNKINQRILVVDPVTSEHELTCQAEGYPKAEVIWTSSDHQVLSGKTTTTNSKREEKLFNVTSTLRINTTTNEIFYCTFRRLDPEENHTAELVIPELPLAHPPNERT
Test: PD-1/PD-L1 Homogenous Time-Resolved Fluorescence (HTRF) binding assay
Settings: PD-L1-His 10 nM pre-incubated with inhibitor, PD-1-Ig 20 nM; read-out: HTRF IC50
Source text: The ability of the compounds of formula (I) to bind to PD-L1 was investigated using a PD-1/PD-L1 Homogenous Time-Resolved Fluorescence (HTRF) binding assay.
The interaction of PD-1 and PD-L1 can be assessed using soluble, purified preparations of the extracellular domains of the two proteins. The PD-1 and PD-L1 protein extracellular domains were expressed as fusion proteins with detection tags, for PD-1, the tag was the Fc portion of Immunoglobulin (PD-1-Ig) and for PD-L1 it was the 6 histidine motif (PD-L1-His). All binding studies were performed in an HTRF assay buffer consisting of dPBS supplemented with 0.1% […] bovine serum albumin and 0.05% (v/v) Tween-20. For the h/PD-L1-His binding assay, inhibitors were pre-incubated with PD-L1-His (10 nM final) for 15 m in 4 μl of assay buffer, followed by addition of PD-1-Ig (20 nM final) in 1 μl of assay buffer and further incubation for 15 m. HTRF detection was achieved using europium crypate-labeled anti-Ig (1 nM final) and allophycocyanin (APC) labeled anti-His (20 nM final). Antibodies were diluted in HTRF detection buffer and 5 μl was dispensed on top of the binding reaction. […] Additional binding assays were established between the human proteins PD-1-Ig/PD-L2-His (20 & 5 nM, respectively) and CD80-His/PD-L1-Ig (100 & 10 nM, respectively). […]

SMILES: CCCC[C@H]1C(=O)N(C)[C@@H](CCCC)C(=O)N[C@@H](CC(C)C)C(=O)N[C@H](C(=O)NCC(N)=O)CSCC(=O)N[C@@H](Cc2ccc(O)cc2)C(=O)N(C)[C@@H](C)C(=O)N[C@@H](CC(N)=O)C(=O)N2CCC[C@H]2C(=O)N[C@@H](CNC(=S)Nc2ccccc2Oc2ccccc2)C(=O)N[C@@H](CC(C)C)C(=O)N2C[C@H](O)C[C@H]2C(=O)N[C@@H](Cc2c[nH]c3ccccc23)C(=O)N[C@@H](CCNC(=S)Nc2ccccc2Oc2ccccc2)C(=O)N[C@@H](Cc2cn(CC(=O)O)c3ccccc23)C(=O)N1C [Example 1129] ({CH2CO}-Y[NMeA]NP[Dap](X43)L[Hyp]W[Dab](X43)[Trp(1-CH2COOH)][NMeNle][NMeNle]LCG-NH2; thioether N-14)
- IC50: 9.4 nM

SMILES: CCCC[C@H]1C(=O)N(C)[C@@H](CCCC)C(=O)N[C@@H](CC(C)C)C(=O)N[C@H](C(=O)NCC(N)=O)CSCC(=O)N[C@@H](Cc2ccc(O)cc2)C(=O)N(C)[C@@H](C)C(=O)N[C@@H](CC(N)=O)C(=O)N2CCC[C@H]2C(=O)N[C@@H](CNC(=S)Nc2cccc3nsnc23)C(=O)N[C@@H](CC(C)C)C(=O)N2C[C@H](O)C[C@H]2C(=O)N[C@@H](Cc2c[nH]c3ccccc23)C(=O)N[C@@H](CCN)C(=O)N[C@@H](Cc2cn(CC(=O)O)c3ccccc23)C(=O)N1C [Example 3016] ({CH2CO}-Y[NMeA]NP[Dap](X82)L[Hyp]W[Dab][Trp(1-CH2COOH)][NMeNle][NMeNle]LCG-NH2; thioether N-14)
- IC50: 0.6 nM

SMILES: CCCC[C@H]1C(=O)N(C)[C@@H](CCCC)C(=O)N[C@@H](CC(C)C)C(=O)N[C@H](C(=O)NCC(N)=O)CSCC(=O)N[C@@H](Cc2ccc(O)cc2)C(=O)N(C)[C@@H](C)C(=O)N[C@@H](CC(N)=O)C(=O)N2CCC[C@H]2C(=O)N[C@@H](CNC(=O)c2ccc(F)c(C(F)(F)F)c2)C(=O)N[C@@H](CC(C)C)C(=O)N2C[C@H](O)C[C@H]2C(=O)N[C@@H](Cc2c[nH]c3ccccc23)C(=O)N[C@@H](CCNC(=O)c2ccc(F)c(C(F)(F)F)c2)C(=O)N[C@@H](Cc2cn(CC(=O)OC)c3ccccc23)C(=O)N1C [Example 1007] ({CH2CO}-Y[NMeA]NP[Dap](Benzoyl(4-F,3-CF3))L[Hyp]W[Dab](Benzoyl(4-F,3-CF3))[Trp(1-CH2CO2Me)][NMeNle][NMeNle]LCG-NH2; thioether N-14)
- IC50: 32 nM

SMILES: CCCC[C@H]1C(=O)N(C)[C@@H](CCCC)C(=O)N[C@@H](CC(C)C)C(=O)N[C@H](C(=O)NCC(N)=O)CSCC(=O)N[C@@H](Cc2ccc(O)cc2)C(=O)N(C)[C@@H](C)C(=O)N[C@@H](CC(N)=O)C(=O)N2CCC[C@H]2C(=O)N[C@@H](CNC(=O)c2cc3ccccc3o2)C(=O)N[C@@H](CC(C)C)C(=O)N2C[C@H](O)C[C@H]2C(=O)N[C@@H](Cc2c[nH]c3ccccc23)C(=O)N[C@@H](CCN)C(=O)N[C@@H](Cc2cn(CC(=O)O)c3ccccc23)C(=O)N1C [Example 3034] ({CH2CO}-Y[NMeA]NP[Dap](Benzofuran(2-CO))L[Hyp]W[Dab][Trp(1-CH2COOH)][NMeNle][NMeNle]LCG-NH2; thioether N-14)
- IC50: 3.2 nM

SMILES: CCCC[C@H]1C(=O)N(C)[C@@H](CCCC)C(=O)N[C@@H](CC(C)C)C(=O)N[C@H](C(=O)NCC(N)=O)CSCC(=O)N[C@@H](Cc2ccc(O)cc2)C(=O)N(C)[C@@H](C)C(=O)N[C@@H](CC(N)=O)C(=O)N2CCC[C@H]2C(=O)N[C@@H](CNC(=O)Nc2c(F)cc(F)cc2F)C(=O)N[C@@H](CC(C)C)C(=O)N2C[C@H](O)C[C@H]2C(=O)N[C@@H](Cc2c[nH]c3ccccc23)C(=O)N[C@@H](CCNC(=O)Nc2c(C)cccc2Cl)C(=O)N[C@@H](Cc2cn(CC(=O)O)c3ccccc23)C(=O)N1C [Example 1114] ({CH2CO}-Y[NMeA]NP[Dap]([CO-X90])L[Hyp]W[Dab]([CO-X51])[Trp(1-CH2COOH)][NMeNle][NMeNle]LCG-NH2; thioether N-14)
- IC50: 2.5 nM

SMILES: CCCC[C@H]1C(=O)N(C)[C@@H](CCCC)C(=O)N[C@@H](CC(C)C)C(=O)N[C@H](C(=O)NCC(N)=O)CSCC(=O)N[C@@H](Cc2ccc(O)cc2)C(=O)N(C)[C@@H](C)C(=O)N[C@@H](CC(N)=O)C(=O)N2CCC[C@H]2C(=O)N[C@@H](CN)C(=O)N[C@@H](CC(C)C)C(=O)N2C[C@H](O)C[C@H]2C(=O)N[C@@H](Cc2c[nH]c3ccccc23)C(=O)N[C@@H](CCNC(=S)Nc2cccc3c(C(N)=O)c[nH]c23)C(=O)N[C@@H](Cc2cn(CC(=O)O)c3ccccc23)C(=O)N1C [Example 3027] ({CH2CO}-Y[NMeA]NP[Dap]L[Hyp]W[Dab](X8)[Trp(1-CH2COOH)][NMeNle][NMeNle]LCG-NH2; thioether N-14)
- IC50: 3.9 nM

SMILES: CCCC[C@H]1C(=O)N(C)[C@@H](CCCC)C(=O)N[C@@H](CC(C)C)C(=O)N[C@H](C(=O)NCC(N)=O)CSCC(=O)N[C@@H](Cc2ccc(O)cc2)C(=O)N(C)[C@@H](C)C(=O)N[C@@H](CC(N)=O)C(=O)N2CCC[C@H]2C(=O)N[C@@H](CNC(=S)Nc2cccc3ccccc23)C(=O)N[C@@H](CC(C)C)C(=O)N2C[C@H](O)C[C@H]2C(=O)N[C@@H](Cc2c[nH]c3ccccc23)C(=O)N[C@@H](CCNC(=S)Nc2cccc3ccccc23)C(=O)N[C@@H](Cc2cn(CC(=O)O)c3ccccc23)C(=O)N1C [Example 3006] ({CH2CO}-Y[NMeA]NP[Dap](X5)L[Hyp]W[Dab](X5)[Trp(1-CH2COOH)][NMeNle][NMeNle]LCG-NH2; thioether N-14)
- IC50: 2.8 nM

SMILES: CCCCCCCOc1ccc(NC(=O)NCC[C@@H]2NC(=O)[C@H](Cc3c[nH]c4ccccc34)NC(=O)[C@@H]3C[C@@H](O)CN3C(=O)[C@H](CC(C)C)NC(=O)[C@H](CNC(=O)Nc3ccc(OCCCCCCC)cc3)NC(=O)[C@@H]3CCCN3C(=O)[C@H](CC(N)=O)NC(=O)[C@H](C)N(C)C(=O)[C@H](Cc3ccc(O)cc3)NC(=O)CSC[C@@H](C(=O)NCC(N)=O)NC(=O)[C@H](CC(C)C)NC(=O)[C@H](CCCC)N(C)C(=O)[C@H](CCCC)N(C)C(=O)[C@H](Cc3cn(CC(=O)O)c4ccccc34)NC2=O)cc1 [Example 1090] ({CH2CO}-Y[NMeA]NP[Dap]([CO-X6])L[Hyp]W[Dab]([CO-X6])[Trp(1-CH2COOH)][NMeNle][NMeNle]LCG-NH2; thioether N-14)
- IC50: 242 nM

The remaining lines, values ahead:

- IC50: 1.9 nM
SMILES: CCCC[C@H]1C(=O)N(C)[C@@H](CCCC)C(=O)N[C@@H](CC(C)C)C(=O)N[C@H](C(=O)NCC(N)=O)CSCC(=O)N[C@@H](Cc2ccc(O)cc2)C(=O)N(C)[C@@H](C)C(=O)N[C@@H](CC(N)=O)C(=O)N2CCC[C@H]2C(=O)N[C@@H](CNC(=S)Nc2ccccc2)C(=O)N[C@@H](CC(C)C)C(=O)N2C[C@H](O)C[C@H]2C(=O)N[C@@H](Cc2c[nH]c3ccccc23)C(=O)N[C@@H](CCNC(=S)Nc2ccccc2)C(=O)N[C@@H](Cc2cn(CC(=O)O)c3ccccc23)C(=O)N1C [Example 1001] ({CH2CO}-Y[NMeA]NP[Dap](X26)L[Hyp]W[Dab](X26)[Trp(1-CH2COOH)][NMeNle][NMeNle]LCG-NH2; thioether N-14)

- IC50: 3.7 nM
SMILES: CCCC[C@H]1C(=O)N(C)[C@@H](CCCC)C(=O)N[C@@H](CC(C)C)C(=O)N[C@H](C(=O)NCC(N)=O)CSCC(=O)N[C@@H](Cc2ccc(O)cc2)C(=O)N(C)[C@@H](C)C(=O)N[C@@H](CC(N)=O)C(=O)N2CCC[C@H]2C(=O)N[C@@H](CNC(=S)Nc2ccc(OCC)cc2)C(=O)N[C@@H](CC(C)C)C(=O)N2C[C@H](O)C[C@H]2C(=O)N[C@@H](Cc2c[nH]c3ccccc23)C(=O)N[C@@H](CCNC(=S)Nc2ccc(OCC)cc2)C(=O)N[C@@H](Cc2cn(CC(=O)O)c3ccccc23)C(=O)N1C [Example 1027] ({CH2CO}-Y[NMeA]NP[Dap](X86)L[Hyp]W[Dab](X86)[Trp(1-CH2COOH)][NMeNle][NMeNle]LCG-NH2; thioether N-14)

- IC50: 3.3 nM
SMILES: CCCC[C@H]1C(=O)N(C)[C@@H](CCCC)C(=O)N[C@@H](CC(C)C)C(=O)N[C@H](C(=O)NCC(N)=O)CSCC(=O)N[C@@H](Cc2ccc(O)cc2)C(=O)N(C)[C@@H](C)C(=O)N[C@@H](CC(N)=O)C(=O)N2CCC[C@H]2C(=O)N[C@@H](CNC(=S)Nc2ccc(N3CCOCC3)nc2)C(=O)N[C@@H](CC(C)C)C(=O)N2C[C@H](O)C[C@H]2C(=O)N[C@@H](Cc2c[nH]c3ccccc23)C(=O)N[C@@H](CCNC(=S)Nc2ccc(N3CCOCC3)nc2)C(=O)N[C@@H](Cc2cn(CC(=O)O)c3ccccc23)C(=O)N1C [Example 1093] ({CH2CO}-Y[NMeA]NP[Dap](X94)L[Hyp]W[Dab](X94)[Trp(1-CH2COOH)][NMeNle][NMeNle]LCG-NH2; thioether N-14)

- IC50: 3.5 nM
SMILES: CCCC[C@H]1C(=O)N(C)[C@@H](CCCC)C(=O)N[C@@H](CC(C)C)C(=O)N[C@H](C(=O)NCC(N)=O)CSCC(=O)N[C@@H](Cc2ccc(O)cc2)C(=O)N(C)[C@@H](C)C(=O)N[C@@H](CC(N)=O)C(=O)N2CCC[C@H]2C(=O)N[C@@H](CNC(=S)Nc2ccc(C(F)(F)F)cc2)C(=O)N[C@@H](CC(C)C)C(=O)N2C[C@H](O)C[C@H]2C(=O)N[C@@H](Cc2c[nH]c3ccccc23)C(=O)N[C@@H](CCN)C(=O)N[C@@H](Cc2cn(CC(=O)O)c3ccccc23)C(=O)N1C [Example 1034] ({CH2CO}-Y[NMeA]NP[Dap](X44)L[Hyp]W[Dab][Trp(1-CH2COOH)][NMeNle][NMeNle]LCG-NH2; thioether N-14)
